According to paper PMC8330742, “New benzothieno[2,3-c]pyridines as non-steroidal CYP17 inhibitors: design, synthesis, anticancer screening, apoptosis induction, and in silico ADME profile studies” (Journal of Enzyme Inhibition and Medicinal Chemistry, 2021):

How the values were obtained:
[1] = test system: CCRF-CEM; experiment: NCI-60 SRB screen; assay type: cell-based; conditions: Homo sapiens, single dose 10^−5 M, read-out: Growth inhibition (%)
[2] = test system: HL-60(TB); experiment: NCI-60 SRB screen; assay type: cell-based, human; conditions: Homo sapiens; HL-60 (TB); single dose 10^−5 M; read-out: Growth inhibition (%)
[3] = test system: K-562; experiment: NCI-60 SRB screen; assay type: cell-based, human; conditions: Homo sapiens, K562; K-562; single dose 10^−5 M; read-out: Growth inhibition (%)
[4] = test system: MOLT-4; experiment: NCI-60 SRB screen; assay type: cell-based; conditions: Homo sapiens; MOLT-4; single dose 10^−5 M; read-out: Growth inhibition (%)
[5] = test system: A549/ATCC; experiment: NCI-60 SRB screen; assay type: cell-based, human; conditions: Homo sapiens, single dose 10^−5 M, read-out: Growth inhibition (%)
[6] = test system: EKVX; experiment: NCI-60 SRB screen; assay type: cell-based, human; conditions: Homo sapiens, single dose 10^−5 M, read-out: Growth inhibition (%)
[7] = test system: HOP-62; experiment: NCI-60 SRB screen; assay type: cell-based, human; conditions: Homo sapiens; HOP-62; single dose 10^−5 M; read-out: Growth inhibition (%)
[8] = test system: HOP-92; experiment: NCI-60 SRB screen; assay type: cell-based, human; conditions: Homo sapiens; HOP-92; single dose 10^−5 M; read-out: Growth inhibition (%)
[9] = test system: NCI-H226; experiment: NCI-60 SRB screen; assay type: cell-based, human; conditions: Homo sapiens; NCI-H226; single dose 10^−5 M; read-out: Growth inhibition (%)
[10] = test system: NCI-H23; experiment: NCI-60 SRB screen; assay type: cell-based, human; conditions: Homo sapiens; NCI-H23; single dose 10^−5 M; read-out: Growth inhibition (%)
[11] = test system: NCI-H322M; experiment: NCI-60 SRB screen; assay type: cell-based, human; conditions: Homo sapiens, single dose 10^−5 M, read-out: Growth inhibition (%)
[12] = test system: NCI-H460; experiment: NCI-60 SRB screen; assay type: cell-based, human; conditions: Homo sapiens; NCI-H460; single dose 10^−5 M; read-out: Growth inhibition (%)
[13] = test system: NCI-H522; experiment: NCI-60 SRB screen; assay type: cell-based, human; conditions: Homo sapiens; NCI-H522; single dose 10^−5 M; read-out: Growth inhibition (%)
[14] = test system: COLO 205; experiment: NCI-60 SRB screen; assay type: cell-based, human; conditions: Homo sapiens; COLO 205; single dose 10^−5 M; read-out: Growth inhibition (%)
[15] = test system: HCC-2998; experiment: NCI-60 SRB screen; assay type: cell-based, human; conditions: Homo sapiens; HCC-2998; single dose 10^−5 M; read-out: Growth inhibition (%)
[16] = test system: HCT-116; experiment: NCI-60 SRB screen; assay type: cell-based, human; conditions: Homo sapiens; HCT-116; single dose 10^−5 M; read-out: Growth inhibition (%)
[17] = test system: HCT-15; experiment: NCI-60 SRB screen; assay type: cell-based, human; conditions: Homo sapiens; HCT-15; single dose 10^−5 M; read-out: Growth inhibition (%)
[18] = test system: HT-29; experiment: NCI-60 SRB screen; assay type: cell-based; conditions: Homo sapiens; HT-29; single dose 10^−5 M; read-out: Growth inhibition (%)
[19] = test system: KM12; experiment: NCI-60 SRB screen; assay type: cell-based, human; conditions: Homo sapiens; KM12; single dose 10^−5 M; read-out: Growth inhibition (%)
[20] = test system: SW-620; experiment: NCI-60 SRB screen; assay type: cell-based; conditions: Homo sapiens; SW-620; single dose 10^−5 M; read-out: Growth inhibition (%)
[21] = test system: SF-268; experiment: NCI-60 SRB screen; assay type: cell-based, human; conditions: Homo sapiens; SF-268; single dose 10^−5 M; read-out: Growth inhibition (%)
[22] = test system: SF-295; experiment: NCI-60 SRB screen; assay type: cell-based, human; conditions: Homo sapiens; SF-295; single dose 10^−5 M; read-out: Growth inhibition (%)
[23] = test system: LOX IMVI; experiment: NCI-60 SRB screen; assay type: cell-based, human; conditions: Homo sapiens, single dose 10^−5 M, read-out: Growth inhibition (%)
[24] = test system: MALME-3M; experiment: NCI-60 SRB screen; assay type: cell-based, human; conditions: Homo sapiens, single dose 10^−5 M, read-out: Growth inhibition (%)
[25] = test system: M14; experiment: NCI-60 SRB screen; assay type: cell-based, human; conditions: Homo sapiens; M14; single dose 10^−5 M; read-out: Growth inhibition (%)
[26] = test system: SK-MEL-2; experiment: NCI-60 SRB screen; assay type: cell-based, human; conditions: Homo sapiens; SK-MEL-2; single dose 10^−5 M; read-out: Growth inhibition (%)
[27] = test system: SK-MEL-28; experiment: NCI-60 SRB screen; assay type: cell-based; conditions: Homo sapiens; SK-MEL-28; single dose 10^−5 M; read-out: Growth inhibition (%)
[28] = test system: SK-MEL-5; experiment: NCI-60 SRB screen; assay type: cell-based, human; conditions: Homo sapiens; SK-MEL-5; single dose 10^−5 M; read-out: Growth inhibition (%)
[29] = test system: UACC-257; experiment: NCI-60 SRB screen; assay type: cell-based, human; conditions: Homo sapiens, UACC-257; UACC-275 (so in the source); single dose 10^−5 M; read-out: Growth inhibition (%)
[30] = test system: UACC-62; experiment: NCI-60 SRB screen; assay type: cell-based, human; conditions: Homo sapiens; UACC-62; single dose 10^−5 M; read-out: Growth inhibition (%)
[31] = test system: IGROV1; experiment: NCI-60 SRB screen; assay type: cell-based, human; conditions: Homo sapiens, IGROV-1; IGROV1; single dose 10^−5 M; read-out: Growth inhibition (%)
[32] = test system: OVCAR-3; experiment: NCI-60 SRB screen; assay type: cell-based, human; conditions: Homo sapiens; OVCAR-3; single dose 10^−5 M; read-out: Growth inhibition (%)
[33] = test system: OVCAR-4; experiment: NCI-60 SRB screen; assay type: cell-based, human; conditions: Homo sapiens; OVCAR-4; single dose 10^−5 M; read-out: Growth inhibition (%)
[34] = test system: OVCAR-8; experiment: NCI-60 SRB screen; assay type: cell-based, human; conditions: Homo sapiens; OVCAR-8; single dose 10^−5 M; read-out: Growth inhibition (%)
[35] = test system: NCI/ADR-RES; experiment: NCI-60 SRB screen; assay type: cell-based, human; conditions: Homo sapiens, single dose 10^−5 M, read-out: Growth inhibition (%)
[36] = test system: SK-OV-3; experiment: NCI-60 SRB screen; assay type: cell-based, human; conditions: Homo sapiens; SK-OV-3; single dose 10^−5 M; read-out: Growth inhibition (%)
[37] = test system: 786-0; experiment: NCI-60 SRB screen; assay type: cell-based; conditions: Homo sapiens; 786-0; single dose 10^−5 M; read-out: Growth inhibition (%)
[38] = test system: ACHN; experiment: NCI-60 SRB screen; assay type: cell-based; conditions: Homo sapiens, single dose 10^−5 M, read-out: Growth inhibition (%)
[39] = test system: CAKI-1; experiment: NCI-60 SRB screen; assay type: cell-based, human; conditions: Homo sapiens; CAKI-1; single dose 10^−5 M; read-out: Growth inhibition (%)
[40] = test system: RXF 393; experiment: NCI-60 SRB screen; assay type: cell-based, human; conditions: Homo sapiens; RXF 393; single dose 10^−5 M; read-out: Growth inhibition (%)
[41] = test system: SN12C; experiment: NCI-60 SRB screen; assay type: cell-based, human; conditions: Homo sapiens, SN12C; SN 12 C; single dose 10^−5 M; read-out: Growth inhibition (%)
[42] = test system: TK-10; experiment: NCI-60 SRB screen; assay type: cell-based, human; conditions: Homo sapiens; TK-10; single dose 10^−5 M; read-out: Growth inhibition (%)
[43] = test system: UO-31; experiment: NCI-60 SRB screen; assay type: cell-based, human; conditions: Homo sapiens; UO-31; single dose 10^−5 M; read-out: Growth inhibition (%)
[44] = test system: panel of 60 cancer cell lines; experiment: NCI-60 SRB screen, mean or range over the panel; assay type: cell-based, human; conditions: Homo sapiens; mean over the cell lines; single dose 10^−5 M; read-out: Mean growth inhibition (%)

Structure (SMILES): O=[N+]([O-])c1cccc(C2NC(Cl)=C(Cl)c3c2sc2c(F)cccc32)c1 (centres unmarked) [Compound 7a, 3,4-Dichloro-8-fluoro-1-(3-nitrophenyl)-1,2-dihydro[1]benzothieno[2,3-c] pyridine]
- inhibition at 10 µM [1]: 2.12%
- inhibition at 10 µM [2]: -8.33%
- inhibition at 10 µM [3]: 18%
- inhibition at 10 µM [4]: 15.2%
- inhibition at 10 µM [5]: 2.3%
- inhibition at 10 µM [6]: 7.1%
- inhibition at 10 µM [7]: 15.5%
- inhibition at 10 µM [8]: 14.7%
- inhibition at 10 µM [9]: 14.2%
- inhibition at 10 µM [10]: 8.55%
- inhibition at 10 µM [11]: -2.48%
- inhibition at 10 µM [12]: 1.24%
- inhibition at 10 µM [13]: 12.7%
- inhibition at 10 µM [14]: -14.6%
- inhibition at 10 µM [15]: -16.1%
- inhibition at 10 µM [16]: 13.4%
- inhibition at 10 µM [17]: -1.63%
- inhibition at 10 µM [18]: -1.97%
- inhibition at 10 µM [19]: 3.25%
- inhibition at 10 µM [20]: 4.18%
- inhibition at 10 µM [21]: 5.16%
- inhibition at 10 µM [22]: -2.06%
- inhibition at 10 µM [23]: 1.24%
- inhibition at 10 µM [24]: -2.96%
- inhibition at 10 µM [25]: 4.95%
- inhibition at 10 µM [26]: -5.95%
- inhibition at 10 µM [27]: -11.4%
- inhibition at 10 µM [28]: 1.94%
- inhibition at 10 µM [29]: -7.18%
- inhibition at 10 µM [30]: 7.18%
- inhibition at 10 µM [31]: 10.7%
- inhibition at 10 µM [32]: -3.96%
- inhibition at 10 µM [33]: 3.16%
- inhibition at 10 µM [34]: 1.9%
- inhibition at 10 µM [35]: -2.76%
- inhibition at 10 µM [36]: 5.95%
- inhibition at 10 µM [37]: -7.16%
- inhibition at 10 µM [38]: 6.96%
- inhibition at 10 µM [39]: 18.8%
- inhibition at 10 µM [40]: 7.81%
- inhibition at 10 µM [41]: 2.54%
- inhibition at 10 µM [42]: -37.2%
- inhibition at 10 µM [43]: 30.2%
- inhibition at 10 µM [44]: 3.15%
